The values below are quoted from earlier work in patent US20050107349A1, “Method for the treatment or prevention of respiratory disorders with a cyclooxygenase-2 inhibitor in combination with a muscarinic receptor antagonist and compositions therewith” (Pharmacia Corporation, priority 2003, published 2005).

Data set [1] relates to subjects suffering from asthma.

On to `C[N+]1(C)[C@@H]2C[C@@H](OC(=O)C(O)(c3cccs3)c3cccs3)C[C@H]1[C@@H]1O[C@@H]12` [tiotropium, (1α, 2β, 4β, 5α, 7β)-7-[(hydroxy-2-thienylacetyl)oxy]-9,9-dimethyl-3-oxa-9-azoniatricyclo [3.3.1.0^2,4]nonane bromide monohydrate], for which, in the data set on patients with COPD, the “dose-dependent and prolonged bronchodilator effect (duration)” value is ≤ 48 h. Besides, the bronchodilation result in data set [1] was “prolonged bronchodilation”.
